# According to ChEMBL document CHEMBL3822440, “Semi-synthesis and antiproliferative evaluation of PEGylated pentacyclic triterpenes” (Eur J Med Chem, 2016):
# What was measured:
# [1] = tested on: HT-29; test: Cytotoxicity against human HT-29 cells assessed as growth inhibition after 72 hrs by MTT assay; type: functional, cell-based; conditions: HT-29, 72 h
# [2] = tested on: HepG2; test: Cytotoxicity against human HepG2 cells assessed as growth inhibition after 72 hrs by MTT assay; type: functional, cell-based; conditions: HepG2, 72 h
# [3] = Cytotoxicity against mouse B16F10 cells assessed as growth inhibition after 72 hrs by MTT assay; type: functional, cell-based; conditions: B16-F10, 72 h
# [4] = tested on: B16-F10; test: Potency index, ratio of maslinic acid IC50 to compound IC50 for mouse B16F10 cells; type: functional
# [5] = tested on: HT-29; test: Potency index, ratio of maslinic acid IC50 to compound IC50 for human HT-29 cells; type: functional
# [6] = tested on: HepG2; test: Potency index, ratio of maslinic acid IC50 to compound IC50 for human HepG2 cells; type: functional
# [7] = tested on: B16-F10; test: Potency index, ratio of oleanolic acid IC50 to compound IC50 for mouse B16F10 cells; type: functional
# [8] = tested on: HT-29; test: Potency index, ratio of oleanolic acid IC50 to compound IC50 for human HT-29 cells; type: functional
# [9] = tested on: HepG2; test: Potency index, ratio of oleanolic acid IC50 to compound IC50 for human HepG2 cells; type: functional
Structure (SMILES),IC50 [1],IC50 [2],IC50 [3],Ratio IC50 [4],Ratio IC50 [5],Ratio IC50 [6],Ratio IC50 [7],Ratio IC50 [8],Ratio IC50 [9]
CC1(C)CC[C@]2(C(=O)O)CC[C@]3(C)C(=CC[C@@H]4[C@@]5(C)C[C@@H](O)[C@H](O)C(C)(C)[C@@H]5CC[C@]43C)[C@@H]2C1 [MASLINIC ACID],32.2 µM,99.2 µM,,,,,,,
CC(=O)O[C@@H]1C[C@]2(C)[C@H]3CC=C4[C@@H]5CC(C)(C)CC[C@]5(C(=O)NCCCOCCOCCOCCCN)CC[C@@]4(C)[C@]3(C)CC[C@H]2C(C)(C)[C@H]1OC(C)=O,130 µM,176 µM,104 µM,0.3,0.2,0.6,,,
COCCOCCOCC(=O)O[C@H]1CC[C@]2(C)[C@H]3CC=C4[C@@H]5CC(C)(C)CC[C@]5(C(=O)OCc5ccccc5)CC[C@@]4(C)[C@]3(C)CC[C@H]2C1(C)C,61.6 µM,84.1 µM,175 µM,,,,0.6,7,2.5
CC(=O)O[C@@H]1C[C@]2(C)[C@H]3CC=C4[C@@H]5CC(C)(C)CC[C@]5(C(=O)O)CC[C@@]4(C)[C@]3(C)CC[C@H]2C(C)(C)[C@H]1OC(C)=O,69.1 µM,50.2 µM,,0.8,0.5,2,,,
CC1(C)CC[C@]2(C(=O)OCc3ccccc3)CC[C@]3(C)C(=CC[C@@H]4[C@@]5(C)C[C@@H](O)[C@H](O)C(C)(C)[C@@H]5CC[C@]43C)[C@@H]2C1 [BENZYL MASLINATE],15.3 µM,17 µM,36.2 µM,1,2.1,5.8,,,
CC1(C)CC[C@]2(C(=O)NCCCOCCOCCOCCCNC(=O)[C@]34CCC(C)(C)C[C@H]3C3=CC[C@@H]5[C@@]6(C)C[C@@H](O)[C@H](O)C(C)(C)[C@@H]6CC[C@@]5(C)[C@]3(C)CC4)CC[C@]3(C)C(=CC[C@@H]4[C@@]5(C)C[C@@H](O)[C@H](O)C(C)(C)[C@@H]5CC[C@]43C)[C@@H]2C1,82.8 µM,96.7 µM,118 µM,0.3,0.4,1,,,
CC(=O)O[C@@H]1C[C@]2(C)[C@H]3CC=C4[C@@H]5CC(C)(C)CC[C@]5(C(=O)NCCCOCCOCCOCCCNC(=O)[C@]56CCC(C)(C)C[C@H]5C5=CC[C@@H]7[C@@]8(C)C[C@@H](OC(C)=O)[C@H](OC(C)=O)C(C)(C)[C@@H]8CC[C@@]7(C)[C@]5(C)CC6)CC[C@@]4(C)[C@]3(C)CC[C@H]2C(C)(C)[C@H]1OC(C)=O,64.3 µM,113 µM,107 µM,0.3,0.5,0.9,,,
CC1(C)CC[C@]2(C(=O)O)CC[C@]3(C)C(=CC[C@@H]4[C@@]5(C)CC[C@H](O)C(C)(C)[C@@H]5CC[C@]43C)[C@@H]2C1 [OLEANOLIC_ACID],430 µM,212 µM,,,,,,,
"CC(=O)OC1CC[C@]2(C)[C@H]3CC=C4[C@@H]5CC(C)(C)CC[C@]5(C(=O)NCCCOCCOCCOCCCNC(=O)[C@]56CCC(C)(C)C[C@H]5C5=CC[C@@H]7[C@@]8(C)CC[C@H](OC(C)=O)C(C)(C)[C@@H]8CC[C@@]7(C)[C@]5(C)CC6)CC[C@@]4(C)[C@]3(C)CC[C@H]2C1(C)C (single isomer, unassigned)",83.2 µM,24.4 µM,119 µM,,,,0.9,5.2,8.7
CC1(C)CC[C@]2(C(=O)NCCCOCCOCCOCCCNC(=O)[C@]34CCC(C)(C)C[C@H]3C3=CC[C@@H]5[C@@]6(C)CC[C@H](O)C(C)(C)[C@@H]6CC[C@@]5(C)[C@]3(C)CC4)CC[C@]3(C)C(=CC[C@@H]4[C@@]5(C)CC[C@H](O)C(C)(C)[C@@H]5CC[C@]43C)[C@@H]2C1,85.6 µM,66.7 µM,123 µM,,,,0.9,5,3.2
CC(=O)O[C@H]1CC[C@]2(C)[C@H]3CC=C4[C@@H]5CC(C)(C)CC[C@]5(C(=O)NCCCOCCOCCOCCCN)CC[C@@]4(C)[C@]3(C)CC[C@H]2C1(C)C,138 µM,68.7 µM,201 µM,,,,0.5,3.1,3.1
CC1(C)CC[C@]2(C(=O)OCc3ccccc3)CC[C@]3(C)C(=CC[C@@H]4[C@@]5(C)CC[C@H](O)C(C)(C)[C@@H]5CC[C@]43C)[C@@H]2C1,67.1 µM,38.7 µM,,,,,2,6.4,5.5
CC(=O)O[C@H]1CC[C@]2(C)[C@H]3CC=C4[C@@H]5CC(C)(C)CC[C@]5(C(=O)O)CC[C@@]4(C)[C@]3(C)CC[C@H]2C1(C)C [ACETYL OLEANOLIC ACID],148 µM,104 µM,,,,,1.6,2.9,2
